US11912701B2, “Protein kinase inhibitors for promoting liver regeneration or reducing or preventing hepatocyte death” (HEPAREGENIX GMBH, priority 2018, dated 2024)

Columns and labels:
Assay type in all cases: biochemical
[1] = target: JNK1 (Homo sapiens, UniProt P45983); assay: 33PanQinase enzyme assay, JNK1; set-up: purchased ProQinase GmbH, Freiburg, Germany (33PanQinase Assay Service); conditions: ratio IC50(JNK1)/IC50(MKK4)
In short: (§1)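 Radiometric kinase reactions with ATP, test compound in DMSO and enzyme/substrate mix were incubated 60 min at 30 °C, stopped with 2% H3PO4 and washed; incorporated 33Pi was counted by scintillation. Single-concentration data are given as % residual activity; IC50 values come from least-squares curve fits.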

[2] = target: T1, BRaf (Homo sapiens, UniProt P15056); assay: 33PanQinase enzyme assay, BRaf; conditions: ratio IC50(BRaf)/IC50(MKK4)
T1 construct: purchased ProQinase GmbH, Freiburg, Germany (33PanQinase Assay Service)
T1 sequence (P15056 whole entry, species assumed): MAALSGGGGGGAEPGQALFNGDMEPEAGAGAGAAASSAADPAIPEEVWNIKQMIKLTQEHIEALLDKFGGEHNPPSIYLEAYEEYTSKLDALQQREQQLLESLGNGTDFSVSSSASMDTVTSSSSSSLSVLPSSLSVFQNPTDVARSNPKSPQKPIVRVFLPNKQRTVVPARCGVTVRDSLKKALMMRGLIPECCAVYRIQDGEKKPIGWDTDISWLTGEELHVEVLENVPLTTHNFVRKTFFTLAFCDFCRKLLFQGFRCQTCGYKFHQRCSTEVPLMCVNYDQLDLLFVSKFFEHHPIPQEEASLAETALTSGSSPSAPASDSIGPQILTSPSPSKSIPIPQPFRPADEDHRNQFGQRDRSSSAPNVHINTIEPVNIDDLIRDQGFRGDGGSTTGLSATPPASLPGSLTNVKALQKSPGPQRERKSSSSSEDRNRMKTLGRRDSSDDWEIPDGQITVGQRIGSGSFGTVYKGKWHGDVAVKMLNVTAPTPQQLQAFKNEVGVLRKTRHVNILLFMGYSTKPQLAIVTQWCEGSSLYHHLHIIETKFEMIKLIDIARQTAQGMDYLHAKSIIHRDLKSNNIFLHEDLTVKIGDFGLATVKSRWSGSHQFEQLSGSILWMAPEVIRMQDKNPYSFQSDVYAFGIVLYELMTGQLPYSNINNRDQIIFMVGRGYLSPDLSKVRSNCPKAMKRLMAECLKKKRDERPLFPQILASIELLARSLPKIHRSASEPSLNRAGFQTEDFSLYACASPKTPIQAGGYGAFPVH
In short: as §1

[3] = target: T2, MKK4 (Homo sapiens, UniProt P45985); assay: 33PanQinase enzyme assay, MKK4; conditions: assay 'IC50'; read-out: Potency MKK4 (IC50)
T2 construct: purchased ProQinase GmbH, Freiburg, Germany (33PanQinase Assay Service)
T2 sequence (P45985 1-399): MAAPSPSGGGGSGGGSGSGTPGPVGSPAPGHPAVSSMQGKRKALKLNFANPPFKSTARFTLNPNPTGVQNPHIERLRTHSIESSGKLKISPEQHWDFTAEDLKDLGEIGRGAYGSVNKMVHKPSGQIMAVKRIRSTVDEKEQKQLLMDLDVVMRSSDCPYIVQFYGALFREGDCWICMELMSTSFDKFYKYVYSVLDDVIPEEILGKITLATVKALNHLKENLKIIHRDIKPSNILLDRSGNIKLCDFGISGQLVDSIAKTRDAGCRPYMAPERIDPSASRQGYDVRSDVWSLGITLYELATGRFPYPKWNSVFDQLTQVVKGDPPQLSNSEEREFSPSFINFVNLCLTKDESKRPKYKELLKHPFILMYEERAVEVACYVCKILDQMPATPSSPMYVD
In short: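 Radiometric 33PanQinase assay: kinase, substrate, ATP and compound in standard buffer, 60 min at 30 °C; 33Pi incorporation read by scintillation counting.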

[4] = target: T3, MKK7 (Homo sapiens, UniProt O14733); assay: 33PanQinase enzyme assay, MKK7; set-up: purchased ProQinase GmbH, Freiburg, Germany (33PanQinase Assay Service); conditions: ratio IC50(MKK7)/IC50(MKK4)
T3 sequence (O14733 1-419): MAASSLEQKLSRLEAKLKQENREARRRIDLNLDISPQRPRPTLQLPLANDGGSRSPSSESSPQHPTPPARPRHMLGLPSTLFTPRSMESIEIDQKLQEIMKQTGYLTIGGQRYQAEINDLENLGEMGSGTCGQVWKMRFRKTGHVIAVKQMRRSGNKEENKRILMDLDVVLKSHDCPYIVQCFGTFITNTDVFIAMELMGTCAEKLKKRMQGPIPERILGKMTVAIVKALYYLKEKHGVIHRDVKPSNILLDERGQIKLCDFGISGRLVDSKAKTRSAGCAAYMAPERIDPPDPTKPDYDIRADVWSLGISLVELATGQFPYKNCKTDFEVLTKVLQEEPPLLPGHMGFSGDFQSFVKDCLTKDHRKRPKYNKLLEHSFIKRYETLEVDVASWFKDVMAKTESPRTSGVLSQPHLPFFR
In short: as §1

Chain of JNK1 (P45983 whole entry): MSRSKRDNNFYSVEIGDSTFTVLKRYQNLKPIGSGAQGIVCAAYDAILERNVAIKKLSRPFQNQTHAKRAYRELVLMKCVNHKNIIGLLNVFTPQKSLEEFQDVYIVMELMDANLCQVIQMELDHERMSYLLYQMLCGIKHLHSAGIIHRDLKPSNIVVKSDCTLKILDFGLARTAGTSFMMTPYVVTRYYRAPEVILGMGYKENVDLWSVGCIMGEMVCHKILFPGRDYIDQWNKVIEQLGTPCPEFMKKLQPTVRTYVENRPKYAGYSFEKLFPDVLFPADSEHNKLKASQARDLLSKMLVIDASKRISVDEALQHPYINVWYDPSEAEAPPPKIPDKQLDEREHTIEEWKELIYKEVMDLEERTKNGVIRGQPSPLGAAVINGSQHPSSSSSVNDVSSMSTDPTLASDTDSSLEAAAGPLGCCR

Row | Selectivity Braf, IC50(off-target)/IC50(MKK4) [2] | IC50 [3] | Selectivity IVIKK7, IC50(off-target)/IC50(MKK4) [4] | Compound | Selectivity JNK1, IC50(off-target)/IC50(MKK4) [1]
1 | +++ (IC50(off-target)/IC50(MKK4) > 100) | 100 to 1000 nM | +++ (IC50(off-target)/IC50(MKK4) > 100) | CCCS(=O)(=O)Nc1c(F)ccc(C(=O)c2c[nH]c3ncc(-c4cnc(NCCOC)nc4)cc23)c1F [Example 187, N-(2,6-difluoro-3-(5-(2-((2-methoxyethyl)amino)pyrimidin-5-yl)-1H-pyrrolo[2,3-b]pyridine-3-carbonyl)phenyl)propane-1-sulfonamide] | +++ (IC50(off-target)/IC50(MKK4) > 100)
2 | ◯ (3 ≥ IC50(off-target)/IC50(MKK4)) | 100 to 1000 nM | +++ (IC50(off-target)/IC50(MKK4) > 100) | CCCS(=O)(=O)Nc1ccc(F)c(C(=O)c2c[nH]c3ncc(-c4ccc(C(C)(C)C)cc4)cc23)c1F [Example 113, N-(3-(5-(4-(tert-butyl)phenyl)-1H-pyrrolo[2,3-b]pyridine-3-carbonyl)-2,4-difluorophenyl)propane-1-sulfonamide] | + (10 ≥ IC50(off-target)/IC50(MKK4) > 3)
3 | + (10 ≥ IC50(off-target)/IC50(MKK4) > 3) | 100 to 1000 nM | +++ (IC50(off-target)/IC50(MKK4) > 100) | CCCS(=O)(=O)Nc1c(F)ccc(C(=O)c2c[nH]c3ncc(-c4cnc(N5CCNCC5)nc4)cc23)c1F [Example 185, N-(2,6-difluoro-3-(5-(2-(piperazin-1-yl)pyrimidin-5-yl)-1H-pyrrolo[2,3-b]pyridine-3-carbonyl)phenyl)propane-1-sulfonamide] | ++ (100 ≥ IC50(off-target)/IC50(MKK4) > 10)
4 | +++ (IC50(off-target)/IC50(MKK4) > 100) | < 100 nM | +++ (IC50(off-target)/IC50(MKK4) > 100) | CCCS(=O)(=O)Nc1c(F)ccc(C(=O)c2c[nH]c3ncc(-c4ccc(C(=O)O)cc4)cc23)c1F [Example 222, 4-(3-(2,4-difluoro-3-(propylsulfonamido)benzoyl)-1H-pyrrolo[2,3-b]pyridin-5-yl)benzoic acid] | ++ (100 ≥ IC50(off-target)/IC50(MKK4) > 10)

Row | Compound | Selectivity Braf, IC50(off-target)/IC50(MKK4) [2] | IC50 [3] | Selectivity IVIKK7, IC50(off-target)/IC50(MKK4) [4] | Selectivity JNK1, IC50(off-target)/IC50(MKK4) [1]
5 | CCCS(=O)(=O)Nc1c(F)ccc(C(=O)c2c[nH]c3ncc(-c4cnc(C#N)nc4)cc23)c1F [Example 189, N-(3-(5-(2-cyanopyrimidin-5-yl)-1H-pyrrolo[2,3-b]pyridine-3-carbonyl)-2,6-difluorophenyl)propane-1-sulfonamide] | ++ (100 ≥ IC50(off-target)/IC50(MKK4) > 10) | 100 to 1000 nM | +++ (IC50(off-target)/IC50(MKK4) > 100) | ++ (100 ≥ IC50(off-target)/IC50(MKK4) > 10)
6 | CCCS(=O)(=O)Nc1c(F)ccc(C(=O)c2c[nH]c3ncc(-c4ccc(S(N)(=O)=O)cc4)cc23)c1F [Example 220, 4-(3-(2,4-difluoro-3-(propylsulfonamido)benzoyl)-1H-pyrrolo[2,3-b]pyridin-5-yl)benzenesulfonamide] | ++ (100 ≥ IC50(off-target)/IC50(MKK4) > 10) | < 100 nM | +++ (IC50(off-target)/IC50(MKK4) > 100) | ++ (100 ≥ IC50(off-target)/IC50(MKK4) > 10)
7 | O=C(c1cccc(NS(=O)(=O)Cc2ccccc2)c1F)c1c[nH]c2ncc(-c3cnc(C4CC4)nc3)cc12 [Example 131, N-(3-(5-(2-cyclopropylpyrimidin-5-yl)-1H-pyrrolo[2,3-b]pyridine-3-carbonyl)-2-fluorophenyl)-1-phenylmethanesulfonamide] | ++ (100 ≥ IC50(off-target)/IC50(MKK4) > 10) | 100 to 1000 nM | +++ (IC50(off-target)/IC50(MKK4) > 100) | ++ (100 ≥ IC50(off-target)/IC50(MKK4) > 10)
